One experiment addresses KRas G12C (Homo sapiens, UniProt P01116, G12C). Nature of the experiment: KRas G12C Probe Occupancy TR-FRET Assay. The following applies: His-tagged KRas G12C; inhibitor incubated 5 or 60 minutes (which one applies is not stated); read-out: relative IC50, competition with KRas Probe for binding to and covalently modifying KRas G12C. From the text:
The purpose of this assay is to measure the ability of an inhibitor to compete with a probe for binding to and covalently modifying KRas G12C at codon 12. The signal is generated by the time-resolved transfer of fluorescence between europium on an antibody bound to KRas G12C Europium-labeled Anti-Histidine Tag Antibody LanthaScreen (the Eu Anti-His antibody) and fluorescent Tracer 647 (Alexa Fluor™) bound to KRas G12C through streptavidin and a biotinylated inhibitor (the “KRas Probe”, see Preparation 59).
Inhibitors are tested in dose response format from 10 mM stocks in 100% DMSO. The Labycyte Echo® 555 is used to dilute and transfer 100 nL per well containing a 10 point, 2.8-fold serial dilution to an assay plate. Two copies of the assay plate are prepared to measure the potency after 5 and 60 minutes incubation of the inhibitor with KRas G12C. His-tagged KRas G12C (20 nM) is added to the plates in assay buffer (20 mM Tris-HCl, pH 7.5, 0.01% TX-100, and 1 mM DTT). After 5 or 60 minutes incubation, 1 μM KRas Probe is added and allowed to covalently modify free KRas G12C for 1 hour. […] After 30 minutes, the fluorescent signal is read on an Envision™ Plate Reader (excitation at 340 nm, tracer emission (em) at […], and antibody emission at 615 nm). […]
For orientation: Time-resolved FRET reads energy transfer from a long-lived donor to a nearby acceptor.

Experiment [1] addresses T1, constitutive RAS GTPase activity in H358 cells (Homo sapiens, UniProt P01116, G12C).
T1 construct: host or cells: H358 human lung cancer cells
Kind of experiment: H358 Cellular Active RAS GTPase ELISA. Format: cell-based. The conditions noted are these: H358 human lung cancer cells, serum free media, 2 hours incubation; read-out: relative IC50, inhibition of constitutive RAS GTPase activity. An excerpt: The purpose of this assay is to measure the ability of test compounds to inhibit constitutive RAS GTPase activity in human lung cancer cells H358 (ATCC CRL-5807). The RAS GTPase ELISA kit (Active Motif Cat #52097) contains a 96-well plate pre-coated with glutathione in order to capture a kit-supplied GST-Raf-RBD protein. Activated RAS (GTP-bound) in cell extracts specifically bind to the Raf-RBD. Bound RAS is detected with a primary antibody that recognizes human KRas. A secondary antibody conjugated with HRP recognizes the primary antibody and a development solution provides a chemiluminescent readout.
H358 cells are plated at 80,000 cells/well in 90 μL serum free media (RPMI 1640, GIBCO) and incubated overnight at 37° C./5% CO2. The next morning, 10 μL of serially-diluted (3-fold) test compounds (500 μM top concentration) and 10 μL of controls (Maximum signal wells: 5% DMSO and Minimum signal wells: 500 μM 1-[4-[6-chloro-8-fluoro-7-(3-hydroxy-1-naphthyl)quinazolin-4-yl]piperazin-1-yl]prop-2-en-1-one, WO2015054572 as an inhibitor) are added to the cell plate and incubated for 2 hours at 37° C./5% CO2. Complete Lysis/Binding Buffer is prepared containing Protease Inhibitor cocktail and GST-Raf-RBD and stored on ice. […] The assay plate is then read on an EnVision™ Plate Reader (Perkin Elmer) using a luminescence program. […]

Experiment [2] has as its system phosphorylation of p-ERK1/2 in H358 cells. Nature of the experiment: H358 Cellular Phospho-ERK AlphaLISA. Format: cell-based. The following applies: NCI-H358; H358 human lung cancer cells, 2 hours incubation; read-out: relative IC50, inhibition of phosphorylation of p-ERK1/2. From the text:
The purpose of this assay is to measure the ability of test compounds to inhibit the phosphorylation of p-ERK1/2, a downstream effector of KRas in human lung cancer cells H358 (ATCC CRL-5807). Briefly, the AlphaLISA® SureFire® Ultra™ p-ERK 1/2 (Thr202/Tyr204) assay is a sandwich immunoassay for quantitative detection of phospho-ERK 1/2 (phosphorylated on Thr202/Tyr204 in ERK1, or Thr185/Tyr187 in ERK2) in cellular lysates using Alpha Technology (Perkin Elmer Cat #ALSU-PERK-A50K).
H358 cells are plated at 40K cells per well in 100 μL media (RPMI 1640, GIBCO Cat #22400-071) containing 10% FBS (GIBCO Cat #: 10082-147) in a 96 well plate (Costar #3596) and are incubated overnight in humid trays at 37° C., 5% CO2. […] The assay plate is then read on an EnVision™ Plate Reader (Perkin Elmer) using a luminescence program. […]

Results on one compound are retold here after US12590105B2, “KRas G12C inhibitors” (Eli Lilly and Company, priority 2020, dated 2026).

T1 sequence (P01116 1-188 isoform P01116-2 G12C): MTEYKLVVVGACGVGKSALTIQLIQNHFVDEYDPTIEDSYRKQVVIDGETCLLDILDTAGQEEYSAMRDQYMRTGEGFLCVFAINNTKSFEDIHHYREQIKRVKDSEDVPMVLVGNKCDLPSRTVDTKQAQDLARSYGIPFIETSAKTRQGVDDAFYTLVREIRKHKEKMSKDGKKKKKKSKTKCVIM
Chain of KRas G12C (P01116 1-188 isoform P01116-2 G12C): as above

In the case of `C=CC(=O)N1CCN2C(=O)c3cc(Cl)c(-c4ccc(F)c5sccc45)c(Cl)c3OCC[C@H]2C1` (single isomer, unassigned) [Example 2], the results for the IC50 (on KRas G12C; in experiment [1]; in experiment [2]) were 34 nM, 326 nM and 89 nM, respectively.
